22 molecules from US9464084B2, “P2X7 modulators” (Janssen Pharmaceutica NV, priority 2013, dated 2016) can be followed below.

SMILES strings stand for the structures.

As usually defined, the IC50 is the concentration that inhibits the measured activity by half. Usually Ki stands for the dissociation constant of the complex between target and ligand, obtained from inhibition or displacement. Low readings indicate a stronger hold on the target, high ones a looser hold on the target.

For test [1], the target named is T1, P2X7 (Homo sapiens (Human), UniProt Q99572). The test can be described thus: Ca2+ flux (FLIPR) in 1321N1 cells expressing recombinant human P2X7 channel.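 Further: Calcium-4 dye-loaded cells exposed to compound for 30 min before agonist addition, fluorescence change read 180 s after agonist.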 The note with it: 250 μM BzATP. Type of test: cell-based. A general note: Calcium flux is commonly read through the fluorescence of an indicator in the cells.
T1 sequence (Q99572 whole entry): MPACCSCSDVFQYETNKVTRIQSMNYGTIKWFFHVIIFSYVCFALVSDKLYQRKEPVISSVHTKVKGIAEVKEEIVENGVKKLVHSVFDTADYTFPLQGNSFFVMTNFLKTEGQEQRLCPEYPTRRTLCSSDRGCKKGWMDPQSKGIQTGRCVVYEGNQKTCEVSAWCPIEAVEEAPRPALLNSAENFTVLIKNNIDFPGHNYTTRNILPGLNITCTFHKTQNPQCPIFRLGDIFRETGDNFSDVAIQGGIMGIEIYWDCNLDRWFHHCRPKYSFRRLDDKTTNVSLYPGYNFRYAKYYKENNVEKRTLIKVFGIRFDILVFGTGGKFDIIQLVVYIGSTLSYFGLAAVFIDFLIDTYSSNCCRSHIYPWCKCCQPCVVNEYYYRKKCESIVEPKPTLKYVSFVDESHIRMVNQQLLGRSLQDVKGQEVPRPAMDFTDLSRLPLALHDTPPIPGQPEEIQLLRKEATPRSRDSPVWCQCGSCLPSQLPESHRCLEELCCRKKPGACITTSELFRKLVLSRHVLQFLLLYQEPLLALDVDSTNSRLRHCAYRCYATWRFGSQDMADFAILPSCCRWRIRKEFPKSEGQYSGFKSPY
Test [2] deals with T1, P2X7. The test can be described thus: Radioligand binding, tritiated A-804598, human P2X7-1321N1 cell membranes.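 Further: ki obtained from the binding IC50 after correction for tracer concentration and tracer affinity.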 The note with it: 1 hour at 4° C.
Procedure: On the day of the experiment, cell membrane preparations were made according to standard published methods. […] The assay was terminated by filtration (GF/B filters pre-soaked with 0.3% PEI) and washed with washing buffer (Tris-HCl 50 mM). The IC50 generated in the binding assay was corrected for tracer concentration and affinity of the tracer to derive at the affinity (Ki) of the test compounds.
Test [3] concerns the target rat P2X7 (Rattus norvegicus (Rat), UniProt Q64663). The test is described as follows: Ca2+ flux (FLIPR) in 1321N1 cells expressing recombinant rat P2X7 channel.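 Further: Calcium-4 dye fluorescence change read 180 s after agonist addition, following 30 min cell preincubation with test compound.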 It is filed as cell-based. As to conditions: 250 μM BzATP.
Procedure: Cells were seeded at a density of 25000 cells/well (96-well clear bottom black walled plates) in 100 μl volume/well. On the day of the experiment, cell plates were washed with assay buffer, containing (in mM): 130 NaCl, 2 KCl, 1 CaCl2, 1 MgCl2, 10 HEPES, 5 glucose; pH 7.40 and 300 mOs. After the wash, cells were loaded with the Calcium-4 dye (Molecular Device) and incubated in the dark for 60 minutes. Test compounds were prepared at 250× the test concentration in neat DMSO. Intermediate 96-well compound plates were prepared by transferring 1.2 μL of the compound into 300 μL of assay buffer. A further 3× dilution occurred when transferring 50 μL/well of the compound plate to 100 μL/well in the cell plate. Cells were incubated with test compounds and dye for 30 minutes. […] The fluorescence change was measured 180 seconds after adding the agonist.
The target of test [4] is T1, P2X7. The test can be described thus: P2X7 antagonism in human PBMCs (LPS + Bz-ATP induced IL-1β release, ELISA).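 On all read-outs here: PBMCs from donor human blood, with a further 1.5 h incubation of the cells in the assay.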 The note with it: LPS 30 ng/ml, Bz-ATP 0.5 mM; for PBMC 10 μM (% control): compound 10 μM; for PBMC 1 μM (% control): compound 1 μM. Type of test: cell-based. On the technique in general: An ELISA detects its analyte on a solid surface through an enzyme-linked reagent.

Chain of rat P2X7 (Q64663 whole entry): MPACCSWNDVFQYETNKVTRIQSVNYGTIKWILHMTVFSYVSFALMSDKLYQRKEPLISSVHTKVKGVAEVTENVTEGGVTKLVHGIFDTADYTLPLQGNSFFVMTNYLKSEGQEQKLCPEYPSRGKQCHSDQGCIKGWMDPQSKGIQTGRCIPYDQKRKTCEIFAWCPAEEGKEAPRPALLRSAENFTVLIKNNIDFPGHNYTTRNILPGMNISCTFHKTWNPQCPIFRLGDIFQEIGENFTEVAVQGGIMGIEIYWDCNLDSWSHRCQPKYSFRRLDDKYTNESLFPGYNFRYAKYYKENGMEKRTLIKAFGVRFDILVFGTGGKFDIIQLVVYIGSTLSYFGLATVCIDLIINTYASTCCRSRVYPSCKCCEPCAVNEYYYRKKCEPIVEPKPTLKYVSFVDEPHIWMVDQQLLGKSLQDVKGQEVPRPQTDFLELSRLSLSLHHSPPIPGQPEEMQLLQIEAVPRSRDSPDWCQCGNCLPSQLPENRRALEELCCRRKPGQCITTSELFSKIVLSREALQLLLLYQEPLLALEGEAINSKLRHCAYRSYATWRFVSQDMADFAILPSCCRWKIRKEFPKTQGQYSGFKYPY

Take `O=C(c1cccc(C(F)(F)F)c1Cl)N1CCc2c(-c3cncc(F)c3)n[nH]c2C1` [Example 95, 6-{[2-Chloro-3-(trifluoromethyl)phenyl]carbonyl}-3-(5-fluoropyridin-3-yl)-4,5,6,7-tetrahydro-2H-pyrazolo[3,4-c]pyridine]: the IC50 was 204 nM in test [1] and above 10000 nM in test [3]. The same molecule registered a Ki in test [2] of 316 nM. The “PBMC 10 μM (% control)” value in test [4] came to 14.4 % control.
In the same order, the values of `O=C(c1cccc(C(F)(F)F)c1F)N1CCc2c(nnn2-c2cnccn2)C1` [Example 69, 5-{[2-Fluoro-3-(trifluoromethyl)phenyl]carbonyl}-1-pyrazin-2-yl-4,5,6,7-tetrahydro-1H-[1,2,3]triazolo[4,5-c]pyridine] are 106 nM, 1460 nM, 14.1 nM and 6.8 % control.
The matching figures for `Cc1cc(C)nc(-n2nnc3c2CCN(C(=O)c2cccc(C(F)(F)F)c2Cl)C3C)c1` (stereo not shown) [Example 300, (2-chloro-3-(trifluoromethyl)phenyl)(1-(4,6-dimethylpyridin-2-yl)-4-methyl-6,7-dihydro-1H-[1,2,3]triazolo[4,5-c]pyridin-5(4H)-yl)methanone]: 171 nM, 20200 nM, 398 nM and −1.8 % control.
Consider `O=C(c1cccc(Cl)c1Cl)N1CCc2c(nc(C(F)(F)F)n2-c2ccccc2)C1` [Example 58, 5-[(2,3-Dichlorophenyl)carbonyl]-1-phenyl-2-(trifluoromethyl)-4,5,6,7-tetrahydro-1H-imidazo[4,5-c]pyridine], for which the IC50 was found to be 10.7 nM in test [1] and 766 nM in test [3]. In test [2], this molecule returned a Ki of 126 nM. For the same molecule, the “PBMC 10 μM (% control)” value in test [4] is on record as −2.0 % control.
Take `O=C(c1cccc(C(F)(F)F)c1Cl)N1CCc2c(-c3ncccn3)n[nH]c2C1` [Example 98, 6-{[2-Chloro-3-(trifluoromethyl)phenyl]carbonyl}-3-pyrimidin-2-yl-4,5,6,7-tetrahydro-2H-pyrazolo[3,4-c]pyridine]: the IC50 in test [1] came to 6.6 nM; in test [3], 548 nM. For the same molecule, the inhibitory constant (Ki) in test [2] was found to be 14.1 nM. Also, in test [4], the “PBMC 10 μM (% control)” value came to 32.5 % control.
As to `Cc1c(C(=O)N2CCc3c(nnn3-c3cnccn3)C2)cccc1C(F)(F)F` [Example 276, (2-methyl-3-(trifluoromethyl)phenyl)(1-(pyrazin-2-yl)-6,7-dihydro-1H-[1,2,3]triazolo[4,5-c]pyridin-5(4H)-yl)methanone], the IC50 came out at 6.4 nM in test [1] and 869 nM in test [3]. In test [2], this molecule had a Ki of 5.8 nM. The “PBMC 10 μM (% control)” value in test [4] is −0.9 % control.
As to `O=C(c1cccc(C(F)(F)F)c1Cl)N1CCc2[nH]nnc2C1c1ccccc1` (stereo not shown) [Example 78, 5-{[2-Chloro-3-(trifluoromethyl)phenyl]carbonyl}-4-phenyl-4,5,6,7-tetrahydro-1H-[1,2,3]triazolo[4,5-c]pyridine], the IC50 was determined as 63.1 nM in test [1] and 501 nM in test [3]. Further, in test [2], the inhibition constant (Ki) is 100 nM. Moreover, the “PBMC 1 μM (% control)” value in test [4] is 57.7 % control.
Consider `CC1Cc2c(nnn2-c2ccc(F)cc2)C(C)N1C(=O)c1cccc(Cl)c1Cl` (stereo not shown) [Example 242, (2,3-Dichlorophenyl)(1-(4-fluorophenyl)-4,6-dimethyl-6,7-dihydro-1H-[1,2,3]triazolo[4,5-c]pyridin-5(4H)-yl)methanone], for which the IC50 in test [1] worked out at 81.5 nM; in test [3], 60.4 nM. For the same molecule, in test [2], the Ki is 25.1 nM. For the same molecule, the “PBMC 10 μM (% control)” value in test [4] is −3.4 % control.
As for `Cn1nc2c(c1-c1ccccn1)CCN(C(=O)c1cccc(C(F)(F)F)c1Cl)C2` [Example 92, 6-{[2-Chloro-3-(trifluoromethyl)phenyl]carbonyl}-2-methyl-3-pyridin-2-yl-4,5,6,7-tetrahydro-2H-pyrazolo[3,4-c]pyridine], the IC50 in test [1] was determined as 5.4 nM; in test [3] it was 440 nM. The molecule further came in with a Ki in test [2] of 26.3 nM. Besides, in test [4], the “PBMC 1 μM (% control)” value amounted to 2.8 % control.
Turning to `O=C(c1cccc(C(F)(F)F)c1Cl)N1CCc2c(-c3cccnc3)n[nH]c2C1` [Example 96, 6-{[2-Chloro-3-(trifluoromethyl)phenyl]carbonyl}-3-pyridin-3-yl-4,5,6,7-tetrahydro-2H-pyrazolo[3,4-c]pyridine], the IC50 came to 2.5 nM in test [1] and 179 nM in test [3]. In addition, the affinity in test [2], expressed as Ki, was 14.8 nM. Also, in test [4], the “PBMC 10 μM (% control)” value worked out at 3.6 % control.
Take `Cc1c(C(=O)N2CCc3c(nnn3-c3ccccn3)C2)ccc(F)c1F` [Example 132, (3,4-Difluoro-2-methylphenyl)(1-(pyridin-2-yl)-6,7-dihydro-1H-[1,2,3]triazolo-[4,5-c]pyridin-5(4H)-yl)methanone]: the IC50 in test [1] was 78.3 nM; in test [3] it was 4430 nM. For the same molecule, the affinity in test [2], expressed as Ki, was 50.1 nM. Further, the “PBMC 10 μM (% control)” value in test [4] amounted to 3.8 % control.
In the same order, the values of `CC1c2nnn(-c3cnccn3)c2CCN1C(=O)c1ccc(Cl)cc1F` (stereo not shown) [Example 274, (4-chloro-2-fluorophenyl)(4-methyl-1-(pyrazin-2-yl)-6,7-dihydro-1H-[1,2,3]triazolo[4,5-c]pyridin-5(4H)-yl)methanone] are 74.5 nM, 1880 nM, 41.7 nM and −4.8 % control.
Turning to `O=C(c1ccnc(Cl)c1Cl)N1CCc2c(-c3ccccc3)n[nH]c2C1` [Example 104, 6-[(2,3-Dichloropyridin-4-yl)carbonyl]-3-phenyl-4,5,6,7-tetrahydro-1H-pyrazolo[3,4-c]pyridine], the figures for the IC50 in test [1] and in test [3] were 205 nM and 1610 nM, respectively. For the same molecule, the Ki in test [2] turned out to be 50.1 nM. Further, in test [4], the “PBMC 1 μM (% control)” value is on record as 8.9 % control.
For the molecule `O=C(c1cccc(C(F)(F)F)c1Cl)N1CCc2c(nnn2-c2ccccc2)C1` [Example 61, 5-{[2-Chloro-3-(trifluoromethyl)phenyl]carbonyl}-1-phenyl-4,5,6,7-tetrahydro-1H-[1,2,3]triazolo[4,5-c]pyridine], the half-maximal inhibitory concentration (IC50) in test [1] was 4.7 nM; in test [3], 1400 nM. Further, in test [2], the Ki is 38.9 nM. Also, the “PBMC 1 μM (% control)” value in test [4] was −0.1 % control.
In the case of `Cc1c(C(=O)N2CCc3c(nnn3-c3cnccn3)C2C)cccc1C(F)(F)F` (stereo not shown) [Example 278, (4-methyl-1-(pyrazin-2-yl)-6,7-dihydro-1H-[1,2,3]triazolo[4,5-c]pyridin-5(4H)-yl)(2-methyl-3-(trifluoromethyl)phenyl)methanone], the IC50 in test [1] came to 7.2 nM; in test [3], 92.3 nM. In addition, in test [2], the affinity corresponds to a Ki of 12.6 nM. Also, in test [4], the “PBMC 10 μM (% control)” value is reported as −19.5 % control.
For `CC1c2nnn(-c3ncccn3)c2CCN1C(=O)c1ccc(Cl)cc1Cl` (stereo not shown) [Example 283, (2,4-dichlorophenyl)(4-methyl-1-(pyrimidin-2-yl)-6,7-dihydro-1H-[1,2,3]triazolo[4,5-c]pyridin-5(4H)-yl)methanone], the IC50 turned out to be 4.7 nM in test [1] and 192 nM in test [3]. This molecule yielded a Ki in test [2] of 6.3 nM. For the same molecule, in test [4], the “PBMC 10 μM (% control)” value is −6.3 % control.
The matching figures for `C[C@H]1c2nnn(-c3cncnc3)c2CCN1C(=O)c1cccc(C(F)(F)F)c1Cl` [Example 333, (S)-(2-chloro-3-(trifluoromethyl)phenyl)(4-methyl-1-(pyrimidin-5-yl)-6,7-dihydro-1H-[1,2,3]triazolo[4,5-c]pyridin-5(4H)-yl)methanone]: 101 nM, above 10000 nM, 63.1 nM and 6.9 % control.
As to `O=C(c1cccc(C(F)(F)F)c1Cl)N1CCc2c(-c3ccc(F)cn3)n[nH]c2C1` [Example 94, 6-{[2-Chloro-3-(trifluoromethyl)phenyl]carbonyl}-3-(5-fluoropyridin-2-yl)-4,5,6,7-tetrahydro-2H-pyrazolo[3,4-c]pyridine], the IC50 in test [1] is 12.4 nM; in test [3], 123 nM. The same molecule gave a Ki in test [2] of 31.6 nM. For the same molecule, the “PBMC 10 μM (% control)” value in test [4] stood at 10.8 % control.
In the case of `O=C(c1ccc(Cl)cc1F)N1CCc2c(nnn2-c2cnccn2)C1` [Example 272, (4-chloro-2-fluorophenyl)(1-(pyrazin-2-yl)-6,7-dihydro-1H-[1,2,3]triazolo[4,5-c]pyridin-5(4H)-yl)methanone], the results for the IC50 in test [1] and in test [3] were 622 nM and 3020 nM, respectively. The Ki in test [2] was 100 nM. In addition, the “PBMC 10 μM (% control)” value in test [4] was −7.6 % control.
For `CCOC(=O)C1c2ncn(-c3ccccc3)c2CCN1C(=O)c1cccc(C(F)(F)F)c1Cl` (stereo not shown) [Example 26, Ethyl 5-(2-chloro-3-(trifluoromethyl)benzoyl)-1-phenyl-4,5,6,7-tetrahydro-1H-imidazo[4,5-c]pyridine-4-carboxylate], the IC50 in test [1] stood at 9.8 nM; in test [3] it was 71 nM. This molecule also came in with a Ki in test [2] of 85.1 nM. Besides, the “PBMC 1 μM (% control)” value in test [4] stood at 14.0 % control.
As for `CCC1c2ncn(-c3cnccn3)c2C=CN1C(=O)c1cccc(C(F)(F)F)c1Cl` (stereo not shown) [Example 55, 5-{[2-Chloro-3-(trifluoromethyl)phenyl]carbonyl}-4-ethyl-1-pyrazin-2-yl-4,5-dihydro-1H-imidazo[4,5-c]pyridine], the IC50 in test [1] worked out at 16.7 nM; in test [3] it was 259 nM. In test [2], the Ki was found to be 126 nM. The “PBMC 1 μM (% control)” value in test [4] came to 11.3 % control.
For `CC1c2ncn(-c3ccc(F)cc3)c2CCN1C(=O)c1cccc(C(F)(F)F)c1F` (stereo not shown) [Example 20, (2-Fluoro-3-(trifluoromethyl)phenyl)(1-(4-fluorophenyl)-4-methyl-6,7-dihydro-1H-imidazo[4,5-c]pyridin-5(4H)-yl)methanone], the figures for the IC50 in test [1] and in test [3] were 931 nM and 2370 nM, respectively. Moreover, the affinity in test [2] corresponds to a Ki of 501 nM. Further, the “PBMC 10 μM (% control)” value in test [4] is on record as 8.6 % control.
